{"source": "paper PMC12775823", "about": "“Glucosylceramide regulates depression through activating peroxisome proliferator-activated receptor gamma in dorsal striatum” (Theranostics, 2026)", "key": {"[1]": {"test_system": "D2-MSNs in dorsal striatum of D2-Ugcg^f/f mice", "test": "DREADD (AAV-hM3Dq) activation of D2-MSNs, c-Fos and behavioral tests", "details": "CNO 1 mg/kg, i.p.", "procedure": "Open field test (OFT). […] Mice were gently placed in the center and allowed to explore the area for 5 min. The total distance travelled and time spent in the center (20 × 20 cm^2) were recorded using EthoVision version 7.0 software (Noldus Information Technology, Netherlands).\nElevated plus maze test (EPMT). The apparatus consisted of two open arms (30 cm × 5 cm) and two closed arms (30 cm × 5 cm × 15 cm) extending from a central platform (5 cm × 5 cm), elevated 50 cm above the floor. Mice were placed on the central platform facing one of the open arms and allowed to explore the maze for 5 min. Behavior was recorded using a video camera positioned above the maze in conjunction with Anymaze tracking software (Stoelting Co.; Wood Dale, IL, USA).\nForced swimming test (FST). Each mouse was placed individually into a water-filled cylinder maintained at 23-25 °C and allowed to swim for 6 min. The first 2 min were considered an acclimation period, and data from this period were not included in the analysis. During the remaining 4 min, the behavior of the mice was recorded using EthoVision version 7.0 software (Noldus Information Technology, Netherlands).\nD2-Cre or D2-Ugcg^f/f mice were bilaterally injected with AAV-hM3Dq into the dorsal striatum (AP +0.8 mm, ML ±1.5 mm, DV -3.0 mm). Following surgery, mice were given 3 weeks to express the virus before starting behavioral tests. Prior to each behavioral test, mice received an injection of Clozapine N-oxide (CNO; 1 mg/kg, i.p.; Sigma-Aldrich, USA) 30 min before the testing session."}, "[2]": {"test_system": "CRS-induced mice", "test": "Behavioral tests (OFT, EPMT, LDT, SPT, FST) in chronic restraint stress mice, intra-dorsal striatal infusion", "format": "in vivo", "method": "For intracranial injection, mice were surgically implanted with sterilized guide cannulae in dorsal striatum. […] Mice were intraperitoneally injected with CNO (1 mg/kg/d) before behavioral test.\nChronic restraint stress (CRS). For the CRS protocol, male C57BL/6J mice (8-10 weeks old) were obtained from Charles River Laboratories (Beijing, China). Mice were individually placed into well-ventilated 50 mL conical restraint tube (suitable for mice weighing 20-25 g) with multiple holes for 4 h daily between 10:00 AM and 2:00 PM to minimize circadian rhythm variations. The restraint stress procedure was conducted for 14 consecutive days. Then, all behavioral test were performed between 10:00 AM and 18:00 PM.\n(§1) Elevated plus maze test (EPMT).\n(§2) Light-dark Transition test (LDT).\n(§3) Sucrose preference test (SPT).\n(§4) Forced swimming test (FST)."}, "[3]": {"test_system": "T1, PPARγ", "T1 construct": "from tissue; host or cells: mouse dorsal striatum", "test": "PPARγ mRNA, protein and transcriptional activity in dorsal striatum of CRS-induced mice", "format": "in vivo", "text": "Dorsal striatal tissues were processed in accordance with the RNA isolation kit's instructions (RC102/RC112; Vazyme Biotech Co.,Ltd), mRNA was reverse transcribed using HiScript® III All-in-one RT SuperMix (Vazyme Biotech Co.,Ltd), and cDNA was amplified using SYBR Green (Vazyme Biotech Co.,Ltd). The 2^-ΔΔCt method was used to analyze gene expression, and the relative level of the target gene was normalized to Gapdh. The primer sequences can be found in Supplemental materials Table S1.\nBrain tissues were cut into small pieces and then centrifuged at 13,000 g for 15 min at 4 °C. Supernatants were collected, and proteins concentrations were determined by BCA assay. Samples were denatured at 95 °C for 5 min and subsequently stored at -80 °C for further use. Protein samples were loaded onto 10% SDS-PAGE and transferred on PVDF membranes. After being blocked with 5% nonfat dry milk in Tris-buffered saline with 0.1% Tween-20 for 1.5 h, the PVDF membranes were incubated with corresponding primary antibodies overnight at 4 °C. Membranes were then incubated with HRP-conjugated secondary antibodies for 1 h at room temperature and measured with chemiluminescence imaging system (ChemiScope; Clinx, China).\nNuclear extracts were prepared from N2a cells using a nuclear extraction kit according to the manufacturer protocol. The binding reaction between PPARγ and PPRE was carried out at 4°C for 16 h using 3 μg of nuclear extracts. The binding activity between PPARγ and PPRE was indicated by the change of optical density (OD) at 405 nm, and an enzyme reaction was measured by HRP-conjugated antibody in complex of PPRE/ PPARγ/antibody."}, "[4]": {"test_system": "T2, GCS", "T2 construct": "from tissue; host or cells: mouse dorsal striatum", "test": "GCS activity in dorsal striatum of CRS-induced mice", "format": "in vivo", "details": "intra-dorsal striatal PDMP"}, "[5]": {"test_system": "D2-Pparg^f/f mice", "test": "Behavioral tests in D2-Pparg f/f mice after intra-dorsal striatal microinfusion", "format": "in vivo", "details": "UNC 10 μM, 1 μL/side", "method": "For intracranial injection, mice were surgically implanted with sterilized guide cannulae in dorsal striatum. Intra-dorsal striatal injection of PDMP (100 μM, 1 μL/injection), pioglitazone (100 μM, 1 μL/injection), UNC (10 μM, 1 μL/injection) was performed 30 min before behavioral test. Mice were intraperitoneally injected with CNO (1 mg/kg/d) before behavioral test.\nas §1, §2, §3, §4"}, "[6]": {"test": "LC-MS of GlcCer levels in dorsal striatum of CRS-induced mice", "format": "in vivo", "details": "intra-dorsal striatum infusion of pioglitazone, GlcCer or combination", "method": "The procedure for the extraction of sphingolipids was established according to the LIPID MAPS protocol with modifications. Briefly, dorsal striatal tissues were added 0.5 mL of MeOH, 0.25 mL of CHCl3 and 7.5 μL of internal standards cocktail (2.5 μM). For sphingolipidomics, 5 μL of internal standards mixture (LM6002, Avanti polar lipids) was added. The mixture was then ultrasonicated for 45 s at room temperature and incubation at 48°C overnight. To avoid potentially interfering glycerolipids, 75 μL of KOH in MeOH (1M) was added, followed by incubation in a heat block at 200 rpm for 2 h at 37 °C. After neutralization, a four-step extraction process was performed to obtain SPL extract for analysis. The supernatant was transferred to a new Eppendorf tube and the resides were added l mL of MeOH and 2 mL of CHCl3, followed by centrifugation at 3800 rpm for 8 min. […] Sphingolipidomics were measured with ultra-high-performance liquid chromatography (UPLC) coupled with hybrid Quadrupole-Orbitrap high resolution mass spectrometry (Q-Exactive-HRMS). […] For […] quantitation, brain tissues were quantified by UPLC-MS/MS using a Q-Exactive-HRMS with UPLC. […] Quantification of […] with various fatty acid chain lengths were achieved using the calibration curve of each GlcCer species with closest number of chain length. […]"}, "[7]": {"test_system": "depression and bipolar disorder", "set-up": "method as in PMID 30699881", "details": "clinical; ref [10]; cited from earlier work"}, "[8]": {"test_system": "D2-Ugcg^f/f mice", "test": "Behavioral tests in D2-Ugcg f/f mice after intra-dorsal striatal microinfusion", "format": "in vivo", "details": "pioglitazone 1 μM, 1 μL per side"}, "[9]": {"test_system": "PPARγ target genes", "test": "qRT-PCR of PPARγ target genes in PPARγ-overexpressing N2a cells", "format": "cell-based", "details": "0.1, 1 and 10 μM"}, "[10]": {"details": "D2-Ugcg^f/f mice with AAV-hM3Dq"}, "[11]": {"details": "CRS mice, PDMP 100 μM, 1 μL/side"}}, "note": "Where a name gives a salt, the structure may show the parent alone.", "data": [{"smiles": "C[N+]1([O-])CCN(C2=Nc3cc(Cl)ccc3Nc3ccccc32)CC1", "note": "[CNO, Clozapine-N-oxide]", "values": [{"measurement": "expression of c-Fos", "setting": "[1]; AAV-hM3Dq-injected mice", "result": "significantly increased"}, {"measurement": "immobility time in the FST", "setting": "[1]; [10]", "result": "lower"}, {"measurement": "time in the center area in the OFT", "setting": "[1]; [10]", "result": "more time"}, {"measurement": "time in the light room in the LDT", "setting": "[1]; [10]", "result": "more time"}, {"measurement": "time in the open arms in the EPMT", "setting": "[1]; [10]", "result": "more time"}]}, {"smiles": "CCCCCCCCCC(=O)N[C@@H](CN1CCOCC1)[C@@H](O)c1ccccc1.Cl", "note": "[PDMP, (-)-L-threo-PDMP hydrochloride]", "values": [{"measurement": "immobility time in the FST", "setting": "[2]; [11]", "result": "reduced"}, {"measurement": "sucrose preference in the SPT", "setting": "[2]; [11]", "result": "restored"}, {"measurement": "time spent in light area in the LDT", "setting": "[2]; [11]", "result": "increased"}, {"measurement": "time spent in open arms in the EPMT", "setting": "[2]; [11]", "result": "increased"}, {"measurement": "time spent in the center area in the OFT", "setting": "[2]; [11]", "result": "increased"}, {"measurement": "anxiety- and depression-like behaviors following CRS", "setting": "[2]; PDMP 100 μM, 1 μL/side, intra-dorsal striatum", "result": "significantly ameliorated"}, {"measurement": "PPARγ activity in the dorsal striatum", "setting": "[3]; PDMP treatment", "result": "significantly enhanced"}, {"measurement": "PPARγ mRNA or protein expression", "setting": "[3]; PDMP treatment", "result": "did not alter"}, {"measurement": "GCS activity in the dorsal striatum", "setting": "[4]", "result": "significantly enhanced"}]}, {"smiles": "Clc1cccc(N2CCN(CCCOc3ccc4scnc4c3)CC2)c1Cl", "note": "[UNC, UNC9995]", "values": [{"measurement": "reductions in the OFT, EPMT, LDT, SPT, and FST", "setting": "[5]", "result": "effectively reversed"}]}, {"smiles": "CCc1ccc(CCOc2ccc(CC3SC(=O)NC3=O)cc2)nc1", "note": "(centres unmarked) [pioglitazone, Pioglitazone hydrochloride]", "values": [{"measurement": "GlcCer levels in the dorsal striatum (LC-MS)", "setting": "[6]", "result": "did not alter"}, {"measurement": "stress-induced depression-like behaviors (overall)", "setting": "[2]; CRS mice, administration of GlcCer, pioglitazone or combined", "result": "reverses"}, {"measurement": "symptoms of depression and bipolar disorder", "setting": "[7]", "result": "proven effective"}, {"measurement": "anxiety- and depression-like behaviors in the OFT, EPMT, LDT, SPT, and FST", "setting": "[8]", "result": "effectively reversed"}, {"measurement": "PPARγ mRNA or protein expression", "setting": "[3]; intra-dorsal striatum pioglitazone, GlcCer or combination", "result": "neither pioglitazone, GlcCer, nor their combination altered"}, {"measurement": "expression of Adipoq and Leptin", "setting": "[9]", "result": "robustly upregulated"}, {"measurement": "expression of Angptl4", "setting": "[9]", "result": "significantly increased"}, {"measurement": "expression of adipogenesis-related genes (Srebp-1c, Adrp, Fabp4, Fasn, Cd36)", "setting": "[9]", "result": "strongly induced"}]}]}
